Measured values taken from US5234907A, “Synthetic vasoactive intestinal peptide analogs” (Hoffmann-La Roche Inc., priority 1991, dated 1993).
*1 amine or outer side, *2 acyl side, *3 side chain or, on linkers, in order; H or OH if unused. [ ]: non-standard residue; d: D form. Cys(Acm) = CC(=O)NCSC[C@H](N[*:1])C(=O)[*:2]; Phe(4-NH2) = Nc1ccc(C[C@H](N)C(=O)O)cc1; Phe(4-F) = N[C@@H](Cc1ccc(F)cc1)C(=O)O; 2Nal = N[C@@H](Cc1ccc2ccccc2c1)C(=O)O; Nle = CCCC[C@H](N)C(=O)O; Orn = NCCC[C@H](N)C(=O)O

How the values were obtained:
[1] = system: guinea pig tracheal smooth muscle; assay: Tracheal relaxant activity of VIP analogs on isolated guinea pig tracheal rings; assay type: cell-based; settings: cumulative concentration response; responses as % of maximum response to VIP (10^-6 M=100%); at least three tissues pooled; linear regression
Protocol: The relaxant activity of the VIP analogs was studied in a model utilizing guinea pig trachea. [Wasserman, M. A. et al., in Vasoactive Intestinal Peptide, S. I. Said, ed., Raven Press, N.Y. 1982, pp 177-184]; All tissues were taken from male albino guinea pig weighing 400-600 g, anesthesized with urethane (2 g/kg, i.p.). After exanguination, the trachea were removed and divided into four ring segments (3 mm length). Each ring was suspended by 30 gauge stainless steel wires in a 10 mL jacketed tissue bath and attached via 4-0 silk thread to a Grass force displacement transducer (model FT03C, Grass Instruments Co., Quincy, Ma), for isometric recording of tension. The smooth muscle was bathed in modified Krebs solution of the following composition: NaCl, 120 mM; KCl, 4.7 mM; CaCl2, 2.5 mM; MgSO.4 7H2 O, 1.2 mM; NaHCO3, 25 mM; K2 HPO4 monobasic, 1.2 mM; and dextrose, 10 mM. Tissue baths were maintained at 37° C. and constantly bubbled with 95% O2 and 5% CO2. Responses were recorded on an 8 channel and a 4 channel Hewlett-Packard (model 7702B and 7754A, respectively) recorder (Hewlett-Packard, Paramus, N.J.). […] Frequent readjustments of tension were required during the 60 minute stabilization period which followed. Tissues were rinsed at 15 minute intervals.
Cumulative concentration response curves were obtained for each tissue by successive […] increases in the bath concentration of VIP or VIP analogs according to the method of VanRossum [Arch. Int. Pharmacodyn., 143, 299-330 (1963)]. Only one cumulative dose response curve was obtained on a single tissue. To minimize variability between tissues, relaxant responses were expressed as a percentage of the maximum response obtained to VIP (10^-6 M=100%) added at the end of each concentration response experiment. Responses obtained from at least three tissues were pooled and EC50 values were determined by linear regression.

guinea pigs = assay: In vivo bronchodilator activity by tracheal instillation against histamine-induced bronchoconstriction; set-up: species or system guinea pig; settings: 100 μl, anesthetized male Hartley guinea pigs, histamine challenge 50 μg/kg i.v., inhibition of tracheal pressure increase
Protocol: The in vivo bronchodilator activity of VIP analogs in guinea pigs was assessed by the tracheal instillation route of administration. This technique utilized male guinea pigs (Hartley strain, Charles River) weighing 400-600 g. Animals were anesthetized with urethane (2 g/kg) intraperitoneally and a polyethylene cannula was inserted into the jugular vein for intravenous drug administration.
The animals were tracheotomized and dosing solutions of distilled water or test compound dissolved in distilled water were administered into the trachea, approximately three-quarter the distance to the carina with a pipette. The concentration of the dosing solution was adjusted to deliver a constant volume of 100 μl. The animals were placed supine for one minute to aid drug delivery to the lung. One minute later, spontaneous breathing was arrested with succinylcholine chloride (1.2 mg/kg) administered intravenously, and the animals were ventilized with a Harvard Model 680 small animal respirator set at 40 breaths/min and 4.0 cm^3 stoke volume. The animals were challenged with a maximal constrictory dose of histamine (50 μg/kg, i.v.) and tracheal pressure (cm of water) was recorded from a Statham pressure transducer (P 32 AA).
The change in tracheal pressure was averaged for at least 3 control and 3 drug-treated animals and percent inhibition was calculated. The relative potency of compounds administered by the instillation route was determined by administering various doses of test compound and calculating the median inhibitory dose (ID50 value). The ID50 was determined from log dose-reasons curves generated by at least 3 doses that caused inhibitory effects between 10% and 90%. The correlation coefficient for the regression line of each antagonist was always greater than 0.95.
For determination of the time course of inhibition for various compounds, the time between administration of compound and challenge with histamine was varied. The time course of activity was calculated as the time when inhibition decreased to 40%.

Substance	EC50 [1]	Bronchodilator activity in guinea pigs, ED50 (guinea pigs)
Ac--[Glu^8, Lys^12, Nle^17, Ala^25, Leu^26, Lys^27,28, Gly^29,30, Thr^31 ]--VIP (Ac-HSDAVFTENYTKLRKQ[Nle]AVKKYLNALKKGGT-NH2; SMILES CCCC[C@H](NC(=O)[C@H](CCC(N)=O)NC(=O)[C@H](CCCCN)NC(=O)[C@H](CCCNC(=N)N)NC(=O)[C@H](CC(C)C)NC(=O)[C@H](CCCCN)NC(=O)[C@@H](NC(=O)[C@H](Cc1ccc(O)cc1)NC(=O)[C@H](CC(N)=O)NC(=O)[C@H](CCC(=O)O)NC(=O)[C@@H](NC(=O)[C@H](Cc1ccccc1)NC(=O)[C@@H](NC(=O)[C@H](C)NC(=O)[C@H](CC(=O)O)NC(=O)[C@H](CO)NC(=O)[C@H](Cc1c[nH]cn1)NC(C)=O)C(C)C)[C@@H](C)O)[C@@H](C)O)C(=O)N[C@@H](C)C(=O)N[C@H](C(=O)N[C@@H](CCCCN)C(=O)N[C@@H](CCCCN)C(=O)N[C@@H](Cc1ccc(O)cc1)C(=O)N[C@@H](CC(C)C)C(=O)N[C@@H](CC(N)=O)C(=O)N[C@@H](C)C(=O)N[C@@H](CC(C)C)C(=O)N[C@@H](CCCCN)C(=O)N[C@@H](CCCCN)C(=O)NCC(=O)NCC(=O)N[C@H](C(N)=O)[C@@H](C)O)C(C)C) [Ac--(SEQ ID NO: 16)--NH2]	0.27 nM	0.043 µg
Ac--[Leu^5, p-F--Phe^6, Glu^8, Orn^12, Ala^17,19, Thr^25, Val^26, Thr^28, Gly^29,30, Cys(Acm)^31 ]--VIP (Ac-HSDAL[Phe(4-F)]TENYT[Orn]LRKQAAAKKYLNTVLTGG[Cys(Acm)]-NH2; SMILES CC(=O)NCSC[C@H](NC(=O)CNC(=O)CNC(=O)[C@@H](NC(=O)[C@H](CC(C)C)NC(=O)[C@@H](NC(=O)[C@@H](NC(=O)[C@H](CC(N)=O)NC(=O)[C@H](CC(C)C)NC(=O)[C@H](Cc1ccc(O)cc1)NC(=O)[C@H](CCCCN)NC(=O)[C@H](CCCCN)NC(=O)[C@H](C)NC(=O)[C@H](C)NC(=O)[C@H](C)NC(=O)[C@H](CCC(N)=O)NC(=O)[C@H](CCCCN)NC(=O)[C@H](CCCNC(=N)N)NC(=O)[C@H](CC(C)C)NC(=O)[C@H](CCCN)NC(=O)[C@@H](NC(=O)[C@H](Cc1ccc(O)cc1)NC(=O)[C@H](CC(N)=O)NC(=O)[C@H](CCC(=O)O)NC(=O)[C@@H](NC(=O)[C@H](Cc1ccc(F)cc1)NC(=O)[C@H](CC(C)C)NC(=O)[C@H](C)NC(=O)[C@H](CC(=O)O)NC(=O)[C@H](CO)NC(=O)[C@H](Cc1c[nH]cn1)NC(C)=O)[C@@H](C)O)[C@@H](C)O)[C@@H](C)O)C(C)C)[C@@H](C)O)C(N)=O) [Ac--(SEQ ID NO: 13)--NH2]	0.68 nM	0.09 µg
Ac--[p-F--Phe^6, p-NH2 --Phe^10, Lys^12, Nle^17, Val^26, Thr^28 ]--VIP (Ac-HSDAV[Phe(4-F)]TDN[Phe(4-NH2)]TKLRKQ[Nle]AVKKYLNSVLT-NH2; SMILES CCCC[C@H](NC(=O)[C@H](CCC(N)=O)NC(=O)[C@H](CCCCN)NC(=O)[C@H](CCCNC(=N)N)NC(=O)[C@H](CC(C)C)NC(=O)[C@H](CCCCN)NC(=O)[C@@H](NC(=O)[C@H](Cc1ccc(N)cc1)NC(=O)[C@H](CC(N)=O)NC(=O)[C@H](CC(=O)O)NC(=O)[C@@H](NC(=O)[C@H](Cc1ccc(F)cc1)NC(=O)[C@@H](NC(=O)[C@H](C)NC(=O)[C@H](CC(=O)O)NC(=O)[C@H](CO)NC(=O)[C@H](Cc1c[nH]cn1)NC(C)=O)C(C)C)[C@@H](C)O)[C@@H](C)O)C(=O)N[C@@H](C)C(=O)N[C@H](C(=O)N[C@@H](CCCCN)C(=O)N[C@@H](CCCCN)C(=O)N[C@@H](Cc1ccc(O)cc1)C(=O)N[C@@H](CC(C)C)C(=O)N[C@@H](CC(N)=O)C(=O)N[C@@H](CO)C(=O)N[C@H](C(=O)N[C@@H](CC(C)C)C(=O)N[C@H](C(N)=O)[C@@H](C)O)C(C)C)C(C)C) [Ac--(SEQ ID NO: 68)--NH2]	1.2 nM	3.0 µg
Ac--[Glu^8, Lys^12, Nle^17, Ala^19, Ala^25, Leu^26, Lys^27,28, Ala^29-31 ]--VIP (Ac-HSDAVFTENYTKLRKQ[Nle]AAKKYLNALKKAAA-NH2; SMILES CCCC[C@H](NC(=O)[C@H](CCC(N)=O)NC(=O)[C@H](CCCCN)NC(=O)[C@H](CCCNC(=N)N)NC(=O)[C@H](CC(C)C)NC(=O)[C@H](CCCCN)NC(=O)[C@@H](NC(=O)[C@H](Cc1ccc(O)cc1)NC(=O)[C@H](CC(N)=O)NC(=O)[C@H](CCC(=O)O)NC(=O)[C@@H](NC(=O)[C@H](Cc1ccccc1)NC(=O)[C@@H](NC(=O)[C@H](C)NC(=O)[C@H](CC(=O)O)NC(=O)[C@H](CO)NC(=O)[C@H](Cc1c[nH]cn1)NC(C)=O)C(C)C)[C@@H](C)O)[C@@H](C)O)C(=O)N[C@@H](C)C(=O)N[C@@H](C)C(=O)N[C@@H](CCCCN)C(=O)N[C@@H](CCCCN)C(=O)N[C@@H](Cc1ccc(O)cc1)C(=O)N[C@@H](CC(C)C)C(=O)N[C@@H](CC(N)=O)C(=O)N[C@@H](C)C(=O)N[C@@H](CC(C)C)C(=O)N[C@@H](CCCCN)C(=O)N[C@@H](CCCCN)C(=O)N[C@@H](C)C(=O)N[C@@H](C)C(=O)N[C@@H](C)C(N)=O) [Ac--(SEQ ID NO: 21)--NH2]	0.1 nM	0.03 µg
Ac--[p-F--Phe^6, Glu^8, Lys^12, Nle^17, Val^26, Thr^28, Gly^29,30, Thr^31 ]--VIP (Ac-HSDAV[Phe(4-F)]TENYTKLRKQ[Nle]AVKKYLNSVLTGGT-NH2; SMILES CCCC[C@H](NC(=O)[C@H](CCC(N)=O)NC(=O)[C@H](CCCCN)NC(=O)[C@H](CCCNC(=N)N)NC(=O)[C@H](CC(C)C)NC(=O)[C@H](CCCCN)NC(=O)[C@@H](NC(=O)[C@H](Cc1ccc(O)cc1)NC(=O)[C@H](CC(N)=O)NC(=O)[C@H](CCC(=O)O)NC(=O)[C@@H](NC(=O)[C@H](Cc1ccc(F)cc1)NC(=O)[C@@H](NC(=O)[C@H](C)NC(=O)[C@H](CC(=O)O)NC(=O)[C@H](CO)NC(=O)[C@H](Cc1c[nH]cn1)NC(C)=O)C(C)C)[C@@H](C)O)[C@@H](C)O)C(=O)N[C@@H](C)C(=O)N[C@H](C(=O)N[C@@H](CCCCN)C(=O)N[C@@H](CCCCN)C(=O)N[C@@H](Cc1ccc(O)cc1)C(=O)N[C@@H](CC(C)C)C(=O)N[C@@H](CC(N)=O)C(=O)N[C@@H](CO)C(=O)N[C@H](C(=O)N[C@@H](CC(C)C)C(=O)N[C@H](C(=O)NCC(=O)NCC(=O)N[C@H](C(N)=O)[C@@H](C)O)[C@@H](C)O)C(C)C)C(C)C) [Ac--(SEQ ID NO: 14)--NH2]	0.32 nM	0.1 µg
Ac--[2-Nal^10, Lys^12, Nle^17, Ala^19, Val^26, Thr^28, Gly^29,30, Met^31 ]--VIP (Ac-HSDAVFTDN[2Nal]TKLRKQ[Nle]AAKKYLNSVLTGGM-NH2; SMILES CCCC[C@H](NC(=O)[C@H](CCC(N)=O)NC(=O)[C@H](CCCCN)NC(=O)[C@H](CCCNC(=N)N)NC(=O)[C@H](CC(C)C)NC(=O)[C@H](CCCCN)NC(=O)[C@@H](NC(=O)[C@H](Cc1ccc2ccccc2c1)NC(=O)[C@H](CC(N)=O)NC(=O)[C@H](CC(=O)O)NC(=O)[C@@H](NC(=O)[C@H](Cc1ccccc1)NC(=O)[C@@H](NC(=O)[C@H](C)NC(=O)[C@H](CC(=O)O)NC(=O)[C@H](CO)NC(=O)[C@H](Cc1c[nH]cn1)NC(C)=O)C(C)C)[C@@H](C)O)[C@@H](C)O)C(=O)N[C@@H](C)C(=O)N[C@@H](C)C(=O)N[C@@H](CCCCN)C(=O)N[C@@H](CCCCN)C(=O)N[C@@H](Cc1ccc(O)cc1)C(=O)N[C@@H](CC(C)C)C(=O)N[C@@H](CC(N)=O)C(=O)N[C@@H](CO)C(=O)N[C@H](C(=O)N[C@@H](CC(C)C)C(=O)N[C@H](C(=O)NCC(=O)NCC(=O)N[C@@H](CCSC)C(N)=O)[C@@H](C)O)C(C)C) [Ac--(SEQ ID NO: 18)--NH2]	0.24 nM	0.35 µg
